Activity calls are given as the source filed them. The calls are words filed in the database; no cut-off is given here.
Assays:
[1] = system: VCaP; experiment: Reduction in c-Myc gene expression in AR positive human VCaP cells assessed as reduction in mRNA level at 1000 nM measured after 6 hrs by qRT-PCT analysis; assay type: functional, cell-based
[2] = system: VCaP; experiment: Antitumor activity against human VCaP cells xenografted in CB17 SCID mouse model assessed as tumor growth inhibition at 20 mg/kg, po qd scheduled 5 days in a week measured on day 63; assay type: functional; settings: 1512 h, time 63 day, read-out: TGI
[3] = system: VCaP; experiment: Antiproliferative activity against AR positive human VCaP cells assessed inhibition of cell growth measured after 4 days by CellTiter-Glo Luminescent cell viability assay; assay type: functional, cell-based; settings: 96 h
[4] = system: LNCaP; experiment: Reduction in AR gene expression in AR positive human LNCaP cells assessed as reduction in mRNA level at 1000 nM measured after 6 hrs by qRT-PCT analysis; assay type: functional, cell-based
[5] = system: LNCaP; experiment: Reduction in KLK3 gene expression in AR positive human LNCaP cells assessed as reduction in mRNA level at 1000 nM measured after 6 hrs by qRT-PCT analysis; assay type: functional, cell-based
[6] = system: LNCaP; experiment: Reduction in c-Myc gene expression in AR positive human LNCaP cells assessed as reduction in mRNA level at 1000 nM measured after 6 hrs by qRT-PCT analysis; assay type: functional, cell-based
[7] = system: CWR22R; experiment: Reduction in AR gene expression in AR positive human 22Rv1 cells assessed as reduction in mRNA level at 1000 nM measured after 6 hrs by qRT-PCT analysis; assay type: functional, cell-based
[8] = system: LNCaP; experiment: Antiproliferative activity against AR positive human LNCaP cells assessed inhibition of cell growth measured after 4 days by CellTiter-Glo Luminescent cell viability assay; assay type: functional, cell-based; settings: 96 h
[9] = system: VCaP; experiment: Reduction in AR gene expression in AR positive human VCaP cells assessed as reduction in mRNA level at 1000 nM measured after 6 hrs by qRT-PCT analysis; assay type: functional, cell-based
[10] = system: VCaP; experiment: Reduction in KLK3 gene expression in AR positive human VCaP cells assessed as reduction in mRNA level at 1000 nM measured after 6 hrs by qRT-PCT analysis; assay type: functional, cell-based
[11] = system: CWR22R; experiment: Antiproliferative activity against AR positive human 22Rv1 cells assessed inhibition of cell growth measured after 4 days by CellTiter-Glo Luminescent cell viability assay; assay type: functional, cell-based; settings: 22Rv1, 96 h
[12] = system: CWR22R; experiment: Reduction in c-Myc gene expression in AR positive human 22Rv1 cells assessed as reduction in mRNA level at 1000 nM measured after 6 hrs by qRT-PCT analysis; assay type: functional, cell-based
[13] = system: CWR22R; experiment: Reduction in KLK3 gene expression in AR positive human 22Rv1 cells assessed as reduction in mRNA level at 1000 nM measured after 6 hrs by qRT-PCT analysis; assay type: functional, cell-based
[14] = Oral plasma exposure in SCID mouse at 5 mg/kg, po measured after 3 hrs; assay type: ADME, organism-based; settings: for concentration at 3 h: SCID, plasma
[15] = Oral plasma exposure in SCID mouse at 5 mg/kg, po measured after 6 hrs; assay type: ADME, organism-based; settings: for concentration at 6 h: SCID, plasma
[16] = target: T1, Protein cereblon/Histone acetyltransferase p300 (Homo sapiens, UniProt Q09472+Q96SW2); experiment: PROTAC activity at p300/CRBN in human VCaP cells assessed as maximal protein degradation at 1 uM incubated for 4 hrs by Western blot analysis relative to control; assay type: cell-based
[17] = Oral plasma exposure in SCID mouse at 5 mg/kg, po measured after 1 hr; assay type: ADME, organism-based; settings: for concentration at 1 h: SCID, plasma
[18] = target: T2, Protein cereblon/CREB-binding protein (Homo sapiens, UniProt Q92793+Q96SW2); experiment: PROTAC activity at CBP/CRBN in human VCaP cells assessed as maximal protein degradation at 1 uM incubated for 4 hrs by Western blot analysis relative to control; assay type: cell-based
[19] = target: T1, Protein cereblon/Histone acetyltransferase p300; experiment: PROTAC activity at p300/CRBN in human VCaP cells assessed as protein degradation incubated for 4 hrs by Western blot analysis; assay type: cell-based
Target sequence in this assay (Q09472 whole entry): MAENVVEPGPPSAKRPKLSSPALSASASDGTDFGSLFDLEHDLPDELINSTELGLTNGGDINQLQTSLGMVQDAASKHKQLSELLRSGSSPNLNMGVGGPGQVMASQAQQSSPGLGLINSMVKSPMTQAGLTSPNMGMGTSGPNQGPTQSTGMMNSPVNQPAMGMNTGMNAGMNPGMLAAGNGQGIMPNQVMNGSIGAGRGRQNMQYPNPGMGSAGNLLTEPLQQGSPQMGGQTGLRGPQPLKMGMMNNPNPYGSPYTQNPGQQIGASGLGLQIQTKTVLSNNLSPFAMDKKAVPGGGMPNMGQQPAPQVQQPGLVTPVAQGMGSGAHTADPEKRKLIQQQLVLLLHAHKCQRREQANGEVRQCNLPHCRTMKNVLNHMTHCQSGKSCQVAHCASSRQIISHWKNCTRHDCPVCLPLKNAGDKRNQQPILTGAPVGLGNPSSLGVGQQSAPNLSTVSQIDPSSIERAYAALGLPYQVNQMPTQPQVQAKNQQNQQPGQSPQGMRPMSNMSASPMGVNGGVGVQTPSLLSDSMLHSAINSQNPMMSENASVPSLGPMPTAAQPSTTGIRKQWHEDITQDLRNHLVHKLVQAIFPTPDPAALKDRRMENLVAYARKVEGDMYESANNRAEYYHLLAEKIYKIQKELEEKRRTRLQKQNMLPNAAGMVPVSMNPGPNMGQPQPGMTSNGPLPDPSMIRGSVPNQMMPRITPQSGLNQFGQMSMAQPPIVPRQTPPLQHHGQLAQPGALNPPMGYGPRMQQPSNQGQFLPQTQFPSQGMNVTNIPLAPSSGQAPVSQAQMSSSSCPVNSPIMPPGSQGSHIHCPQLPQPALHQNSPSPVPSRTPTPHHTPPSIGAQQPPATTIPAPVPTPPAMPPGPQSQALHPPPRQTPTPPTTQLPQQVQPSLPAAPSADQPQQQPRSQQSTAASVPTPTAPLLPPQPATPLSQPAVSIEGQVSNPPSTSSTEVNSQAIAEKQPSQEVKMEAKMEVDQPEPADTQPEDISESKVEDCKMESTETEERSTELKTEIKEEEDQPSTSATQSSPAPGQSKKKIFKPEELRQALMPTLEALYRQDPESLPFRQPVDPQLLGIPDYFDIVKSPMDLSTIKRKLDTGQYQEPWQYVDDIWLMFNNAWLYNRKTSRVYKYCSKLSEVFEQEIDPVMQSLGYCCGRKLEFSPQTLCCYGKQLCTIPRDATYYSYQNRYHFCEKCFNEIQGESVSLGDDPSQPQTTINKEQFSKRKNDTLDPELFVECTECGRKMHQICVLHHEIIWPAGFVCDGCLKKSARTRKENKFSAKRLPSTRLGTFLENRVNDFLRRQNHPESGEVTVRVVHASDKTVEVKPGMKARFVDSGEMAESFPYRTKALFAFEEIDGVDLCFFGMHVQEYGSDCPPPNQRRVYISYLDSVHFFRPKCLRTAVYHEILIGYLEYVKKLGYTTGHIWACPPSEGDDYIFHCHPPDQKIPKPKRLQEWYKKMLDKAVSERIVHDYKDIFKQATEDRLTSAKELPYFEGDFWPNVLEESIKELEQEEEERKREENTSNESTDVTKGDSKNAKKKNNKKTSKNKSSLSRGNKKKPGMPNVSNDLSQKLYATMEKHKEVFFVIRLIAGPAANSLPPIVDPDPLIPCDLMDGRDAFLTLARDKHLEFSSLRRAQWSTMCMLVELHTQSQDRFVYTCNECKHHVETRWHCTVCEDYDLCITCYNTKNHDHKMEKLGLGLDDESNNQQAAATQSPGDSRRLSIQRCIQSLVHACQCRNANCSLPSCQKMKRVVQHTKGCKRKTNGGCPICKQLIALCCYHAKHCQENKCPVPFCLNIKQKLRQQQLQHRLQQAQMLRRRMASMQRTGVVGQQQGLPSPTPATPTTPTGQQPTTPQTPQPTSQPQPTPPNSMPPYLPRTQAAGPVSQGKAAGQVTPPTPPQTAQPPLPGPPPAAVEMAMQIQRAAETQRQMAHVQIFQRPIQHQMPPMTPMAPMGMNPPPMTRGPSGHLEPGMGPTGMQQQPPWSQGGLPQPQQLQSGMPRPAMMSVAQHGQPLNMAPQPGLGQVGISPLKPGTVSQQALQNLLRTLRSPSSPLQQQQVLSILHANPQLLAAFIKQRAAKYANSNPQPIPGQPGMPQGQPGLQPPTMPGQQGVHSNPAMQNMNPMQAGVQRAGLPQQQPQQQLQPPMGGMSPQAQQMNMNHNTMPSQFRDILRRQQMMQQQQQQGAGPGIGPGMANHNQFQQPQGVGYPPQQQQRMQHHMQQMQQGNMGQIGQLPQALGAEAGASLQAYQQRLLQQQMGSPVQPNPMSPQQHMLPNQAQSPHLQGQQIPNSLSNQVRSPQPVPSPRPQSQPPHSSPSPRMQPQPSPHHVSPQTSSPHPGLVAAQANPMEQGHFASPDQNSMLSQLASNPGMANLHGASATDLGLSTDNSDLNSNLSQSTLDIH
Target sequence in this assay (Q96SW2 whole entry): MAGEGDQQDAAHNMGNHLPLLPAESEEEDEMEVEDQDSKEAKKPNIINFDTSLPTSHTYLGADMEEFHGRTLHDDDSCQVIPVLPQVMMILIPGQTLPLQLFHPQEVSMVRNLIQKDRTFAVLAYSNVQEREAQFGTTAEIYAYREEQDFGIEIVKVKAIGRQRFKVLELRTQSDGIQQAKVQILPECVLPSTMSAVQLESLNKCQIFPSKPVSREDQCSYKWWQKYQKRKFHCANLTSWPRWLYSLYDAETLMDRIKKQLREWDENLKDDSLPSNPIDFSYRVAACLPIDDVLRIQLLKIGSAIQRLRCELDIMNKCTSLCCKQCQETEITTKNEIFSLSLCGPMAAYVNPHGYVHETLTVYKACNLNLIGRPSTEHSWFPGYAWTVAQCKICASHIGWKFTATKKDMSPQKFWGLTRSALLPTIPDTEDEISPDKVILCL

[20] = target: T2, Protein cereblon/CREB-binding protein; experiment: PROTAC activity at CBP/CRBN in human VCaP cells assessed as protein degradation incubated for 4 hrs by Western blot analysis; assay type: cell-based
[21] = system: VCaP; experiment: Antitumor activity against human VCaP cells xenografted in CB17 SCID mouse model assessed as tumor growth inhibition at 30 mg/kg, po qd scheduled 5 days in a week measured on day 63; assay type: functional; settings: 1512 h, time 63 day, read-out: TGI
[22] = target: Bromodomain-containing protein 4 (Homo sapiens, UniProt O60885); experiment: Binding affinity to BRD4 (unknown origin) by SPR assay
[23] = target: T2, Protein cereblon/CREB-binding protein; experiment: Potency index, ratio of […] DC50 to test compound DC50 for PROTAC activity at CBP/CRBN in human VCaP cells assessed as protein degradation incubated for 4 hrs by Western blot analysis; assay type: cell-based
[24] = target: T1, Protein cereblon/Histone acetyltransferase p300; experiment: Potency index, ratio of CPBD-409 DC50 to test compound DC50 for PROTAC activity at p300/CRBN in human VCaP cells assessed as protein degradation incubated for 4 hrs by Western blot analysis; assay type: cell-based
[25] = system: VCaP; experiment: Reduction in AR gene expression in AR positive human VCaP cells assessed as reduction in mRNA level at 100 nM measured after 6 hrs by qRT-PCT analysis relative to control; assay type: functional, cell-based
[26] = system: LNCaP; experiment: Reduction in AR gene expression in AR positive human LNCaP cells assessed as reduction in mRNA level at 100 nM measured after 6 hrs by qRT-PCT analysis relative to control; assay type: functional, cell-based
[27] = system: CWR22R; experiment: Reduction in c-Myc gene expression in AR positive human 22Rv1 cells assessed as reduction in mRNA level at 100 nM measured after 6 hrs by qRT-PCT analysis relative to control; assay type: functional, cell-based
[28] = system: CWR22R; experiment: Reduction in AR gene expression in AR positive human 22Rv1 cells assessed as reduction in mRNA level at 100 nM measured after 6 hrs by qRT-PCT analysis relative to control; assay type: functional, cell-based
[29] = system: LNCaP; experiment: Reduction in c-Myc gene expression in AR positive human LNCaP cells assessed as reduction in mRNA level at 100 nM measured after 6 hrs by qRT-PCT analysis relative to control; assay type: functional, cell-based
[30] = system: VCaP; experiment: Reduction in c-Myc gene expression in AR positive human VCaP cells assessed as reduction in mRNA level at 100 nM measured after 6 hrs by qRT-PCT analysis relative to control; assay type: functional, cell-based

Row | IC50 [3] [nM] | IC50 [8] [nM] | concentration at 3 h [14] [ng/mL] | concentration at 6 h [15] [ng/mL] | Emax [16] [%] | concentration at 1 h [17] [ng/mL] | Emax [18] [%] | DC50 [19] [nM] | DC50 [20] [nM] | SMILES | Activity [1] | Activity [4] | Activity [5] | Activity [6] | Activity [7] | Activity [9] | Activity [10] | IC50 [11] [nM] | Activity [12] | Activity [13] | further results
1 | 9500 | 8000 |  |  |  |  |  |  |  | CNC(=O)c1ccc(N2C(=S)N(c3ccc(C#N)c(C(F)(F)F)c3)C(=O)C2(C)C)cc1F [ENZALUTAMIDE] | Active | inactive | Active | Active | inactive | inactive | Active | > 1000 | Active | Active | inhibition in vivo at 20 mg/kg [2]: 2.8%
2 | 216 | 7000 |  |  |  |  |  |  |  | CC(=O)N1CCc2c(c(N3CCCc4cc(-c5cnn(C)c5)c(C(F)F)cc43)nn2C2CCOCC2)C1 | Active | Active | Active | Active | Active | Active | Active | > 1000 | Active | Active | inhibition in vivo at 30 mg/kg [21]: 46%
3 |  |  | 962 | 613 | > 95 | 1050 | > 95 | 1.1 | 1.3 | CC(=O)N1CCc2c(c(N3CCCc4cc(-c5cnn(C)c5)c(C(F)F)cc43)nn2C2CCN(C3CN(c4ccc5c(c4)C(=O)N(C4CCC(=O)NC4=O)C5=O)C3)CC2)C1 (stereo not given) |  |  |  |  |  |  |  |  |  |  | 
4 | 219 | 124 |  |  |  |  |  |  |  | N#Cc1ccc(O[C@H]2CC[C@H](NC(=O)c3ccc(N4CCC(CN5CCN(c6cc7c(cc6F)C(=O)N(C6CCC(=O)NC6=O)C7=O)CC5)CC4)nn3)CC2)cc1Cl (stereo not given in full) [BAVDEGALUTAMIDE] |  |  |  |  |  |  |  | 316 |  |  | Activity [25]: Active; Activity [26]: inactive; Activity [27]: inactive; Activity [28]: inactive; Activity [29]: inactive; Activity [30]: Active

Further lines, the compound ahead of its results:

Row | SMILES | IC50 [3] [nM] | IC50 [8] [nM] | concentration at 3 h [14] [ng/mL] | concentration at 6 h [15] [ng/mL] | Emax [16] [%] | concentration at 1 h [17] [ng/mL] | Emax [18] [%] | DC50 [19] [nM] | DC50 [20] [nM] | Activity [1] | Activity [4] | Activity [5] | Activity [6] | Activity [7] | Activity [9] | Activity [10] | IC50 [11] [nM] | Activity [12] | Activity [13] | further results
5 | CC(=O)N1CCc2c(c(N3CCCc4cc(-c5cnn(C)c5)c(C(F)F)cc43)nn2C2CCN(C3CC4(C3)CN(c3ccc5c(c3)C(=O)N(C3CCC(=O)NC3=O)C5=O)C4)CC2)C1 (stereo not given) |  |  | 235 | 149 | > 95 | 183 | > 95 | 0.4 | 0.5 |  |  |  |  |  |  |  |  |  |  | 
6 | CC(=O)N1CCc2c(c(N3CCCc4cc(-c5cnn(C)c5)c(C(F)F)cc43)nn2C2CCN(C(=O)CCCCNc3cccc4c3C(=O)N(C3CCC(=O)NC3=O)C4=O)CC2)C1 (stereo not given) |  |  | 2.7 | 1.6 | > 95 | 5.4 | > 95 | 0.1 | 0.4 |  |  |  |  |  |  |  |  |  |  | 
7 | CC(=O)N1CCc2c(c(N3CCCc4cc(-c5cnn(C)c5)c(C(F)F)cc43)nn2C2CCN(C(=O)CNc3ccc4c(c3)C(=O)N(C3CCC(=O)NC3=O)C4=O)CC2)C1 (stereo not given) |  |  | 1.4 | 1.5 | > 95 | 2.6 | > 95 | 2 | 0.7 |  |  |  |  |  |  |  |  |  |  | 
8 | CO[C@H]1CC[C@H](n2c([C@@H]3CCCC(=O)N3c3ccc(F)c(F)c3)nc3cc(-c4c(C)noc4C)ccc32)CC1 [INOBRODIB] | 53.6 | 412 |  |  |  |  |  |  |  | Active | Active | Active | Active | Active | Active | Active | 184 | Active | Active | inhibition in vivo at 20 mg/kg [2]: 42%; Kd [22]: 222 nM
9 | CC(=O)N1CCc2c(c(N3CCCc4cc(-c5cnn(C)c5)c(C(F)F)cc43)nn2[C@H]2CC[C@H](CN3CCN(c4cc5c(cc4F)C(=O)N(C4CCC(=O)NC4=O)C5=O)CC3)CC2)C1 (stereo not given in full) |  |  |  |  | 94 |  | 94 | 1.2 | 1.2 |  |  |  |  |  |  |  |  |  |  | Ratio [23]: 4; Ratio [24]: 4
10 | CC(=O)N1CCc2c(c(N3CCCc4cc(-c5cnn(C)c5)c(C(F)F)cc43)nn2C2CCN(C(=O)Nc3ccc4c(c3)C(=O)N(C3CCC(=O)NC3=O)C4=O)CC2)C1 (stereo not given) |  |  |  |  | > 95 |  | > 95 | < 0.2 | < 0.2 |  |  |  |  |  |  |  |  |  |  | Cp ([14]; in vivo, po, 5 mg/kg, 3 h, BLD = below limit of detection): Bld; Cp ([15]; in vivo, po, 5 mg/kg, 6 h, BLD = below limit of detection): Bld; Cp ([17]; in vivo, po, 5 mg/kg, 1 h, BLD = below limit of detection): Bld

— ChEMBL document CHEMBL5518240 (J Med Chem, 2024)
